Target: T1, mouse Tas2r144 (Mus musculus, UniProt Q7TQB8)
T1 construct: expressed in transfected cells; host or cells: HEK293T-Gα16gust44
Assay: Calcium imaging assay (FLIPR), HEK293T-Gα16gust44 cells transfected with mouse Tas2r144
Type: cell-based

T1 sequence (Q7TQB8 whole entry): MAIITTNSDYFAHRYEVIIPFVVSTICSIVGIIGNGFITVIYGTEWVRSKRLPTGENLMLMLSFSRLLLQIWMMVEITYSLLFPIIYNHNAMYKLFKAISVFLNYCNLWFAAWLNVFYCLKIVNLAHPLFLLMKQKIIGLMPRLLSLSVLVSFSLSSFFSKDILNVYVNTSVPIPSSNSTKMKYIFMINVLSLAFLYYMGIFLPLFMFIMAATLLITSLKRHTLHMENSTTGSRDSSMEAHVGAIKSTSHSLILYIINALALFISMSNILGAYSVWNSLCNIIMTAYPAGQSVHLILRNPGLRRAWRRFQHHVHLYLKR

Structure (SMILES): C[C@H](CCC(=O)NCCS(=O)(=O)O)[C@H]1CC[C@H]2[C@@H]3CC[C@@H]4C[C@H](O)CC[C@]4(C)[C@H]3CC[C@]12C [Taurolithocholic Acid, taurolithocholic acid]
- RLU (Time 0 s): 0 RLU
- RLU (Time 2 s): 14.6538 RLU
- RLU (Time 4 s): 0.2718 RLU
- RLU (Time 6 s): -11.922 RLU
- RLU (Time 8 s): 1.321 RLU
- RLU (Time 12 s): 10.4417 RLU
- RLU (Time 14 s): -10.556 RLU
- RLU (Time 16 s): -6.199 RLU
- RLU (Time 18 s): 24.6697 RLU
- RLU (Time 18.781 s): 60.5615 RLU
- RLU (Time 20.781 s): -19.5171 RLU
- RLU (Time 22.781 s): -4.009 RLU
- RLU (Time 24.781 s): -20.7725 RLU
- RLU (Time 26.781 s): 1.348 RLU
- RLU (Time 28.781 s): -0.7767 RLU
- RLU (Time 30.781 s): 41.688 RLU
- RLU (Time 32.781 s): 71.1245 RLU
- RLU (Time 34.781 s): 105.382 RLU
- RLU (Time 36.781 s): 151.604 RLU
- RLU (Time 38.781 s): 184.237 RLU
- RLU (Time 40.781 s): 248.501 RLU
- RLU (Time 42.781 s): 269.502 RLU
- RLU (Time 44.781 s): 268.298 RLU
- RLU (Time 46.781 s): 327.359 RLU
- RLU (Time 48.781 s): 341.375 RLU
- RLU (Time 50.781 s): 358.126 RLU
- RLU (Time 52.781 s): 372.318 RLU
- RLU (Time 54.781 s): 375.128 RLU
- RLU (Time 56.781 s): 360.867 RLU
- RLU (Time 58.781 s): 388.738 RLU
- RLU (Time 60.781 s): 413.492 RLU
- RLU (Time 62.781 s): 416.863 RLU
- RLU (Time 64.781 s): 424.583 RLU
- RLU (Time 66.781 s): 428.264 RLU
- RLU (Time 68.781 s): 426.421 RLU
- RLU (Time 70.781 s): 448.262 RLU
- RLU (Time 72.781 s): 417.687 RLU
- RLU (Time 74.781 s): 456.073 RLU
- RLU (Time 76.781 s): 430.589 RLU
- RLU (Time 78.781 s): 445.771 RLU
- RLU (Time 80.781 s): 460.032 RLU
- RLU (Time 82.781 s): 446.511 RLU
- RLU (Time 84.781 s): 409.522 RLU
- RLU (Time 86.781 s): 409.191 RLU
- RLU (Time 88.781 s): 405.957 RLU
- RLU (Time 90.781 s): 381.655 RLU
- RLU (Time 92.781 s): 387.142 RLU
- RLU (Time 94.781 s): 402.42 RLU
- RLU (Time 96.781 s): 404.326 RLU
- RLU (Time 98.781 s): 373.324 RLU
- RLU (Time 100.781 s): 389.827 RLU
- RLU (Time 102.781 s): 378.133 RLU
- RLU (Time 104.781 s): 393.124 RLU
- RLU (Time 106.781 s): 394.729 RLU
- RLU (Time 108.781 s): 385.581 RLU
- RLU (Time 110.781 s): 380.059 RLU
- RLU (Time 112.781 s): 389.586 RLU
- RLU (Time 114.781 s): 357.6 RLU
- RLU (Time 116.781 s): 386.704 RLU
- RLU (Time 118.781 s): 385.665 RLU
- RLU (Time 120.781 s): 364.459 RLU
- RLU (Time 122.781 s): 361.618 RLU
- RLU (Time 124.781 s): 373.746 RLU
- RLU (Time 126.781 s): 327.57 RLU
- RLU (Time 128.781 s): 359.155 RLU
- RLU (Time 130.781 s): 325.368 RLU
- RLU (Time 132.781 s): 293.828 RLU
- RLU (Time 134.781 s): 312.409 RLU
- RLU (Time 136.781 s): 298.284 RLU
- RLU (Time 137.578 s): 290.936 RLU
- RLU (Time 143.578 s): 296.494 RLU
- RLU (Time 149.578 s): 267.674 RLU
- RLU (Time 155.578 s): 285.393 RLU
- RLU (Time 161.578 s): 243.081 RLU
- RLU (Time 167.578 s): 210.334 RLU
- RLU (Time 173.578 s): 225.862 RLU
- RLU (Time 179.578 s): 201.092 RLU
- RLU (Time 185.578 s): 199.988 RLU
- RLU (Time 191.578 s): 157.165 RLU
- RLU (Time 197.578 s): 150.89 RLU
- RLU (Time 203.578 s): 157.65 RLU
- RLU (Time 209.578 s): 119.607 RLU
- RLU (Time 215.578 s): 114.651 RLU
- RLU (Time 221.578 s): 111.289 RLU
- RLU (Time 227.578 s): 125.554 RLU
- RLU (Time 233.578 s): 124.837 RLU
- RLU (Time 239.578 s): 148.185 RLU
- RLU (Time 245.578 s): 121.449 RLU
- RLU (Time 293.578 s): 139.355 RLU
- RLU (Time 299.578 s): 114.827 RLU
- RLU (Time 305.578 s): 107.043 RLU
- RLU (Time 311.578 s): 92.604 RLU
- RLU (Time 317.578 s): 88.3008 RLU
- RLU (Time 323.578 s): 90.2384 RLU
- RLU (Time 329.578 s): 71.9932 RLU
- RLU (Time 335.578 s): 67.9746 RLU
- RLU (Time 341.578 s): 66.5352 RLU
- RLU (Time 347.578 s): 80.5392 RLU
- RLU (Time 353.578 s): 85.9834 RLU
- RLU (Time 359.578 s): 89.3996 RLU
- Activation threshold concentration Tas2r144 (p < 0.01 vs empty vector): 3 µM

From publication PMC10247784, “Physiological activation of human and mouse bitter taste receptors by bile acids” (Communications Biology, 2023)
